Laboratory results: US8957108B2, “Use of 5,6-dimethylxanthenone-4-acetic acid as an antiviral agent” (University of Maryland, Baltimore, priority 2006, dated 2015)
In brackets after ≈: the same amount, converted by molar mass.

Experiments:
[1] = tested on: vesicular stomatitis virus (VSV); assay type: cell-based, strain Indiana; details: RAW 264.7 macrophages pretreated 6 h with 100 μg/ml; highest exposure MOI=10.0
[2] = tested on: Influenza/A/Wuhan; assay: Assay of direct inhibition of viral infection (influenza, MDCK cells, CPE); assay type: cell-based; details: CPE of influenza virus on MDCK cells; read-out: IC50 direct antiviral activity
Description: Influenza at 10^3 TCID50 was added in 50 μl volumes to all wells and incubated at room temperature for 1 h. The mixture was inoculated onto MDCK cells on 96-well plates. Tamiflu (1.75 mg/ml) and Relenza (0.5 mg/ml) were used as a positive control for the assay.

[3] = tested on: IκBα, NF-κB, p38, ERK, and JNK MAPK; assay: IκBα, NF-κB and MAPK activation in macrophages; assay type: cell-based, mouse
[4] = tested on: Francisella tularensis LVS; assay type: cell-based; details: Ft LVS-infected macrophages
[5] = tested on: IFN-β−/− macrophages
[6] = tested on: Ft LVS; details: DMXAA alone (100 μg/ml), over a 24 hr period
[7] = tested on: TBK1−/− MEFs; assay: Quantitative real-time PCR in mouse embryonic fibroblasts; details: 2 h
[8] = tested on: Influenza/A/Wuhan; assay: Assay of indirect inhibition of viral infection (influenza, MDCK cells, CPE); details: CPE of influenza virus on MDCK cells
[9] = IFN-β-deficient cells, DMXAA 3 h vs unstimulated wild-type cells

Cc1ccc2c(=O)c3cccc(CC(=O)O)c3oc2c1C [DMXAA, 5,6-dimethylxanthenone-4-acetic acid]
VSV infection and CPE [1]: completely prevents VSV infection and CPE | IC50 [2]: 5 µg/mL (≈ 17.7 µM) | activation of p38, ERK, and JNK MAPK ([3]; C57BL/6 macrophages): no discernible effect | NF-κB translocation / binding activity ([3]; RAW 264.7 macrophage-like cell line): little effect | level of IκBα protein ([3]; primary macrophages): little effect | time to reduce a bacterial burden compared with rIFN-β [4]: took longer | reduction of bacterial burden ([4]; 100 μg/ml, within 24 hr): 10 fold | CYP1A2 Fold Change: IFNβ−/− [5]: 3.9 fold | CYP1B1 Fold Change: IFNβ−/− [5]: 5.9 fold | 2310043N10RIK Fold Change: IFNβ−/− [5, 9]: 2.2 fold | 5830484A20RIK Fold Change: IFNβ−/− [5, 9]: 4.0 fold | ABCB1 Fold Change: IFNβ−/− [5, 9]: 7.1 fold | ABL1 Fold Change: IFNβ−/− [5, 9]: 1.5 fold | ABLIM1 Fold Change: IFNβ−/− [5, 9]: 1.4 fold | ACVR1B Fold Change: IFNβ−/− [5, 9]: 2.3 fold | ADRB2 Fold Change: IFNβ−/− [5, 9]: 1.7 fold | AFTIPHILIN Fold Change: IFNβ−/− [5, 9]: 1.2 fold | AKAP12 Fold Change: IFNβ−/− [5, 9]: 1.5 fold | AMPD3 Fold Change: IFNβ−/− [5, 9]: 2.7 fold | AP2A2 Fold Change: IFNβ−/− [5, 9]: 8.8 fold | APBB1IP Fold Change: IFNβ−/− [5, 9]: 1.8 fold | APOBEC3F Fold Change: IFNβ−/− [5, 9]: 1.4 fold | ARHGEF3 Fold Change: IFNβ−/− [5, 9]: 2.1 fold | ARID3A Fold Change: IFNβ−/− [5, 9]: 2.5 fold | ARL4C Fold Change: IFNβ−/− [5, 9]: 5.5 fold | ASF1A Fold Change: IFNβ−/− [5, 9]: 2.1 fold | ATRX Fold Change: IFNβ−/− [5, 9]: 2.6 fold | B3GAT3 Fold Change: IFNβ−/− [5, 9]: 1.6 fold | BACE1 Fold Change: IFNβ−/− [5, 9]: 3.7 fold | BAMBI Fold Change: IFNβ−/− [5, 9]: 1.5 fold | BCL2 Fold Change: IFNβ−/− [5, 9]: 1.4 fold | BCL2L1 Fold Change: IFNβ−/− [5, 9]: 2.3 fold | BHLHB2 Fold Change: IFNβ−/− [5, 9]: 1.3 fold | BID Fold Change: IFNβ−/− [5, 9]: 2.9 fold | C8ORF4 Fold Change: IFNβ−/− [5, 9]: 4.1 fold | C9ORF26 Fold Change: IFNβ−/− [5, 9]: 4.4 fold | CCL2 Fold Change: IFNβ−/− [5, 9]: 5.8 fold | CCL3 Fold Change: IFNβ−/− [5, 9]: 1.4 fold | CCL4 Fold Change: IFNβ−/− [5, 9]: 8.1 fold | CCL5 Fold Change: IFNβ−/− [5, 9]: 3.7 fold | CCL7 Fold Change: IFNβ−/− [5, 9]: 2.9 fold | CCL13 Fold Change: IFNβ−/− [5, 9]: 5.8 fold | CCND2 Fold Change: IFNβ−/− [5, 9]: 2.0 fold | CCNE1 Fold Change: IFNβ−/− [5, 9]: 2.9 fold | CCNF Fold Change: IFNβ−/− [5, 9]: 2.4 fold | CCRN4L Fold Change: IFNβ−/− [5, 9]: 1.6 fold | CD37 Fold Change: IFNβ−/− [5, 9]: 1.1 fold | CD40 Fold Change: IFNβ−/− [5, 9]: 1.3 fold | CD86 Fold Change: IFNβ−/− [5, 9]: 6.0 fold | CD274 Fold Change: IFNβ−/− [5, 9]: 1.0 fold | CDC6 Fold Change: IFNβ−/− [5, 9]: 3.2 fold | CDC7 Fold Change: IFNβ−/− [5, 9]: 1.6 fold | CDC37L1 Fold Change: IFNβ−/− [5, 9]: 2.2 fold | CDKN1A Fold Change: IFNβ−/− [5, 9]: 1.1 fold | CEBPB Fold Change: IFNβ−/− [5, 9]: 1.9 fold | CITED2 Fold Change: IFNβ−/− [5, 9]: 1.5 fold | CLCA1 Fold Change: IFNβ−/− [5, 9]: 1.9 fold | CNR2 Fold Change: IFNβ−/− [5, 9]: 2.3 fold | CREBBP Fold Change: IFNβ−/− [5, 9]: 6.3 fold | CXCL10 Fold Change: IFNβ−/− [5, 9]: 21.2 fold | DAXX Fold Change: IFNβ−/− [5, 9]: 1.6 fold | DSCR1 Fold Change: IFNβ−/− [5, 9]: 2.7 fold | FGD6 Fold Change: IFNβ−/− [5, 9]: 2.0 fold | FGL2 Fold Change: IFNβ−/− [5, 9]: 3.6 fold | GBP2 Fold Change: IFNβ−/− [5, 9]: 1.6 fold | GBP4 Fold Change: IFNβ−/− [5, 9]: 4.6 fold | GBP6 Fold Change: IFNβ−/− [5, 9]: 6.8 fold | GYPC Fold Change: IFNβ−/− [5, 9]: 4.4 fold | IFI16 Fold Change: IFNβ−/− [5, 9]: 2.7 fold | IFI35 Fold Change: IFNβ−/− [5, 9]: 1.1 fold | IFI203 Fold Change: IFNβ−/− [5, 9]: 3.4 fold | IFI205 Fold Change: IFNβ−/− [5, 9]: 1.8 fold | IFIH1 Fold Change: IFNβ−/− [5, 9]: 7.0 fold | IFIT1 Fold Change: IFNβ−/− [5, 9]: 22.2 fold | IFIT2 Fold Change: IFNβ−/− [5, 9]: 14.3 fold | IFIT3 Fold Change: IFNβ−/− [5, 9]: 10.5 fold | IFNA5 Fold Change: IFNβ−/− [5, 9]: 2.5 fold | IFNA6 Fold Change: IFNβ−/− [5, 9]: 9.1 fold | IFNB1 Fold Change: IFNβ−/− [5, 9]: 1.1 fold | IFNG Fold Change: IFNβ−/− [5, 9]: 59.4 fold | IGTP Fold Change: IFNβ−/− [5, 9]: 1.2 fold | IIGP1 Fold Change: IFNβ−/− [5, 9]: 1.2 fold | IL6 Fold Change: IFNβ−/− [5, 9]: 13.5 fold | IL12B Fold Change: IFNβ−/− [5, 9]: 1.4 fold | IL15 Fold Change: IFNβ−/− [5, 9]: 1.7 fold | IL15RA Fold Change: IFNβ−/− [5, 9]: 3.3 fold | IRF1 Fold Change: IFNβ−/− [5, 9]: 1.2 fold | IRF2 Fold Change: IFNβ−/− [5, 9]: 1.2 fold | IRGM Fold Change: IFNβ−/− [5, 9]: 2.3 fold | ISG20 Fold Change: IFNβ−/− [5, 9]: 3.4 fold | KATNA1 Fold Change: IFNβ−/− [5, 9]: 1.5 fold | LGP2 Fold Change: IFNβ−/− [5, 9]: 2.7 fold | LHX2 Fold Change: IFNβ−/− [5, 9]: 7.8 fold | LOC129607 Fold Change: IFNβ−/− [5, 9]: 7.8 fold | MAFK Fold Change: IFNβ−/− [5, 9]: 1.6 fold | MARCH5 Fold Change: IFNβ−/− [5, 9]: 1.9 fold | MOV10 Fold Change: IFNβ−/− [5, 9]: 1.2 fold | MX1 Fold Change: IFNβ−/− [5, 9]: 9.3 fold | MX2 Fold Change: IFNβ−/− [5, 9]: 1.1 fold | NMI Fold Change: IFNβ−/− [5, 9]: 1.6 fold | NP Fold Change: IFNβ−/− [5, 9]: 1.7 fold | NT5C3 Fold Change: IFNβ−/− [5, 9]: 1.8 fold | OAS1B Fold Change: IFNβ−/− [5, 9]: 2.1 fold | OASL Fold Change: IFNβ−/− [5, 9]: 19.7 fold | P4HA1 Fold Change: IFNβ−/− [5, 9]: 3.4 fold | P8 Fold Change: IFNβ−/− [5, 9]: 1.3 fold | PARP9 Fold Change: IFNβ−/− [5, 9]: 1.4 fold | PELI1 Fold Change: IFNβ−/− [5, 9]: 4.3 fold | PGF Fold Change: IFNβ−/− [5, 9]: 20.2 fold | PLAU Fold Change: IFNβ−/− [5, 9]: 2.3 fold | PPP1R15A Fold Change: IFNβ−/− [5, 9]: 1.6 fold | PTX3 Fold Change: IFNβ−/− [5, 9]: 1.3 fold | PVRL2 Fold Change: IFNβ−/− [5, 9]: 3.1 fold | PVRL4 Fold Change: IFNβ−/− [5, 9]: 4.3 fold | REL Fold Change: IFNβ−/− [5, 9]: 1.1 fold | RGC32 Fold Change: IFNβ−/− [5, 9]: 3.0 fold | RIPK2 Fold Change: IFNβ−/− [5, 9]: 1.3 fold | RSAD2 Fold Change: IFNβ−/− [5, 9]: 7.8 fold | SAP30 Fold Change: IFNβ−/− [5, 9]: 1.6 fold | SAV1 Fold Change: IFNβ−/− [5, 9]: 2.6 fold | SDC4 Fold Change: IFNβ−/− [5, 9]: 3.3 fold | SECTM1 Fold Change: IFNβ−/− [5, 9]: 1.2 fold | SLC7A2 Fold Change: IFNβ−/− [5, 9]: 1.8 fold | SOAT1 Fold Change: IFNβ−/− [5, 9]: 1.9 fold | SOCS1 Fold Change: IFNβ−/− [5, 9]: 3.4 fold | STAT2 Fold Change: IFNβ−/− [5, 9]: 1.7 fold | TGTP Fold Change: IFNβ−/− [5, 9]: 1.6 fold | TLK2 Fold Change: IFNβ−/− [5, 9]: 1.4 fold | TLR3 Fold Change: IFNβ−/− [5, 9]: 1.3 fold | TMOD3 Fold Change: IFNβ−/− [5, 9]: 2.3 fold | TNF Fold Change: IFNβ−/− [5, 9]: 1.4 fold | TNFRSF11B Fold Change: IFNβ−/− [5, 9]: 100.0 fold | TNFSF9 Fold Change: IFNβ−/− [5, 9]: 1.7 fold | TOR1AIP1 Fold Change: IFNβ−/− [5, 9]: 1.3 fold | TPST1 Fold Change: IFNβ−/− [5, 9]: 6.1 fold | TREX1 Fold Change: IFNβ−/− [5, 9]: 5.2 fold | TRIM21 Fold Change: IFNβ−/− [5, 9]: 2.6 fold | TRIM25 Fold Change: IFNβ−/− [5, 9]: 2.3 fold | TRIM34 Fold Change: IFNβ−/− [5, 9]: 1.9 fold | USP18 Fold Change: IFNβ−/− [5, 9]: 1.0 fold | VCAM1 Fold Change: IFNβ−/− [5, 9]: 1.6 fold | ZBP1 Fold Change: IFNβ−/− [5, 9]: 4.2 fold | ZNF313 Fold Change: IFNβ−/− [5, 9]: 1.5 fold | effect on Ft LVS replication [6]: no effect | RANTES mRNA in TBK1-deficient MEFs [7]: fail to express | TNF-α mRNA in TBK1-deficient MEFs [7]: fail to express | IC50 indirect antiviral activity [8]: 2.0 µg/mL (≈ 7.08 µM)
